Read-outs that look alike come from different tables or passages of the source.
Test system: iCell cardiomyocytes (human iPSC-derived cardiomyocytes)
Test: Intracellular Ca2+ flux / beating parameters in iCell cardiomyocytes (FLIPR tetra), 90 min or 24 h
Type: cell-based
Conditions: Homo sapiens, Cardiomyocyte, 0.00 µM = 100.00; for activity at 0.1 µM: 0.10 µM
In short: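 PODs were defined as the concentration crossing one SD of the vehicle-control means (0.5% DMSO) on four-parameter logistic fits of Ca2+ trace metrics (peak height, frequency, peak-spacing CV, decay/rise ratio). Traces came from 100 s, 8 Hz FLIPR reads at 37 °C on calcium-dye-loaded iCell cardiomyocytes. Before reading, cells were treated for 90 min or 24 h from 5× chemical plates spanning 0.05–500 µM, in triplicate.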

[1] = 1.5 h, 90min, read-out: cm.amp.avg.90min
[2] = 1.5 h, 90min, read-out: cm.amp.cv.90min
[3] = 1.5 h, 90min, read-out: cm.bpm.90min
[4] = 1.5 h, 90min, read-out: cm.decay.rise.90min
[5] = 1.5 h, 90min, read-out: cm.spacing.cv.90min
[6] = 24 h, 24hrs, read-out: cm.amp.avg.24hrs
[7] = 24 h, 24hrs, read-out: cm.amp.cv.24hrs
[8] = 24 h, 24hrs, read-out: cm.bpm.24hrs
[9] = 24 h, 24hrs, read-out: cm.decay.rise.24hrs
[10] = 24 h, 24hrs, read-out: cm.spacing.cv.24hrs

Clc1ccc(Cl)c(-c2cc(Cl)ccc2Cl)c1 [PCB52]
activity at 0.01 µM [1]: 97.9% | activity at 0.01 µM [2]: 90.9% | activity at 0.01 µM [3]: 102% | activity at 0.01 µM [4]: 101% | activity at 0.01 µM [5]: 93.9% | activity at 0.1 µM [1]: 101% | activity at 0.1 µM [2]: 102% | activity at 0.1 µM [3]: 99.1% | activity at 0.1 µM [4]: 101% | activity at 0.1 µM [5]: 98.6% | activity at 1 µM [1]: 105% | activity at 1 µM [2]: 111% | activity at 1 µM [3]: 97.8% | activity at 1 µM [4]: 102% | activity at 1 µM [5]: 91% | activity at 10 µM [1]: 96.6% | activity at 10 µM [2]: 99.4% | activity at 10 µM [3]: 99.1% | activity at 10 µM [4]: 111% | activity at 10 µM [5]: 102% | activity at 100 µM [1]: 44.4% | activity at 100 µM [2]: 73% | activity at 100 µM [3]: 0% | activity at 100 µM [4]: 42.8% | activity at 100 µM [5]: 71.6% | activity at 0.01 µM [6]: 86.6% | activity at 0.01 µM [7]: 98.1% | activity at 0.01 µM [8]: 96.4% | activity at 0.01 µM [9]: 111% | activity at 0.01 µM [10]: 109% | activity at 0.1 µM [6]: 84.6% | activity at 0.1 µM [7]: 95.6% | activity at 0.1 µM [8]: 90.7% | activity at 0.1 µM [9]: 108% | activity at 0.1 µM [10]: 89.3% | activity at 1 µM [6]: 51.8% | activity at 1 µM [7]: 42.2% | activity at 1 µM [8]: 46.8% | activity at 1 µM [9]: 55.5% | activity at 1 µM [10]: 44.5% | activity at 10 µM [6]: 86.5% | activity at 10 µM [7]: 119% | activity at 10 µM [8]: 93.6% | activity at 10 µM [9]: 127% | activity at 10 µM [10]: 98.5% | activity at 100 µM [6]: 0% | activity at 100 µM [7]: 0% | activity at 100 µM [8]: 0% | activity at 100 µM [9]: 0% | activity at 100 µM [10]: 0%

Clc1ccc(Cl)c(-c2c(Cl)ccc(Cl)c2Cl)c1 [PCB95]
activity at 0.01 µM [1]: 91.5% | activity at 0.01 µM [2]: 105% | activity at 0.01 µM [3]: 99.1% | activity at 0.01 µM [4]: 101% | activity at 0.01 µM [5]: 118% | activity at 0.1 µM [1]: 99.9% | activity at 0.1 µM [2]: 86.3% | activity at 0.1 µM [3]: 96.5% | activity at 0.1 µM [4]: 103% | activity at 0.1 µM [5]: 104% | activity at 1 µM [1]: 84.6% | activity at 1 µM [2]: 116% | activity at 1 µM [3]: 85.3% | activity at 1 µM [4]: 109% | activity at 1 µM [5]: 92% | activity at 10 µM [1]: 101% | activity at 10 µM [2]: 120% | activity at 10 µM [3]: 86.5% | activity at 10 µM [4]: 120% | activity at 10 µM [5]: 120% | activity at 100 µM [1]: 9.49% | activity at 100 µM [2]: 441% | activity at 100 µM [3]: 0% | activity at 100 µM [4]: 36.2% | activity at 100 µM [5]: 78.1% | activity at 0.01 µM [6]: 115% | activity at 0.01 µM [7]: 139% | activity at 0.01 µM [8]: 110% | activity at 0.01 µM [9]: 92.5% | activity at 0.01 µM [10]: 142% | activity at 0.1 µM [6]: 181% | activity at 0.1 µM [7]: 73.7% | activity at 0.1 µM [8]: 113% | activity at 0.1 µM [9]: 99.1% | activity at 0.1 µM [10]: 137% | activity at 1 µM [6]: 76.5% | activity at 1 µM [7]: 36.8% | activity at 1 µM [8]: 43.9% | activity at 1 µM [9]: 54.1% | activity at 1 µM [10]: 61.3% | activity at 10 µM [6]: 144% | activity at 10 µM [7]: 77.4% | activity at 10 µM [8]: 79.2% | activity at 10 µM [9]: 109% | activity at 10 µM [10]: 127% | activity at 100 µM [6]: 0% | activity at 100 µM [7]: 0% | activity at 100 µM [8]: 0% | activity at 100 µM [9]: 0% | activity at 100 µM [10]: 0%
